Earlier results as cited in patent publication US20070042005A1, “Pharmaceutical composition comprising fungal cell or fragment thereof” (priority 2003, published 2007).
One block for each compound: values may come before it.

How the values were obtained:
[1] = rats
[2] = in animals; owing to poor intestinal permeability

SMILES: CCCCCCCCCCCCCCCC(=O)OC(CC(=O)[O-])C[N+](C)(C)C (stereo not drawn) [Palmitoyl carnitine]
effect on bioavailability of cefoxitin [1]: increase the bioavailability of cefoxitin

oral absorption: poorly absorbed orally
SMILES: C[C@H](N[C@@H](CCc1ccccc1)C(=O)O)C(=O)N1CCC[C@H]1C(=O)O [Enalaprilat]

oral bioavailability [2]: < 5%
SMILES: CO[C@@]1(NC(=O)Cc2cccs2)C(=O)N2C(C(=O)O)=C(COC(N)=O)CS[C@@H]21 [cefoxitin]
